Source: US20120231072A1, “THERMO-RESPONSIVE HYDROGEL COMPOSITIONS” (Chemisches Institut Schaefer AG, priority 2011, published 2012)
Where a name gives a salt, the structure may show the parent alone. Read-outs that look alike come from different tables or passages of the source.

Key:
[1] = Drug encapsulation efficiency in PLGA particles; type: physicochemical
Experimental: The clear organic mixture was emulsified into an external aqueous phase (5 ml, 2% w/v PVA) with vortexing for 20 seconds followed by sonication on ice at 55 W for 5 minutes. […] Nanospheres were harvested by ultracentrifugation at 16,000 g for 10 min, after which the resultant pellet was re-suspended in DI water by sonication and washed twice with DI water. […] Dynamic light scattering (DLS) was used to characterize the size of the nanospheres. To investigate nanosphere encapsulation in thermo-responsive hydrogels, nanospheres were added into the hydrogel precursor solutions at 0, 2.5, 5, and 10 mg/ml prior to polymerization initiated by the addition of TEMED. The hydrogels were then washed 5 times with PBS every 20 minutes, as described for hydrogels with no nanospheres. Swelling ratio was tested for hydrogels with varying concentration of nanospheres at both room and body temperature.
The drug concentration was determined spectrophotometrically at 240 nm. […] The encapsulation efficiency was calculated as (actual drug loaded/total drug used)×100%.

[2] = tested on: endotoxin-induced uveitis (EIU) animal model; details: 24 hours after intravitreal treatment; LPS alone ~45% vasodilation
Experimental: Adult male Lewis rats (weight 310-350 g) were used as an endotoxin-induced uveitis (EIU) animal model. LPS from Salmonella Typhimurium (Sigma Aldrich, St. Louis, Mo.) was mixed with PBS immediately prior to the injection. The animals were divided as followed:
Control: intravitreal injection of LPS at day 0. ˜5 μl intravitreal injection of control gel (no dexamethasone) at 24 hrs after the LPS induction (day 1);
Treatment control: intravitreal injection of LPS at day 0. ˜5 μl intravitreal injection of dexamethasone (10 mg/ml dose, Sigma) at 24 hrs after the LPS induction;
Treatment 1: intravitreal injection of LPS at day 0. ˜5 μl intravitreal injection of dexamethasone hydrogel (10 mg/ml dose, Sigma) at 24 hrs after the LPS induction; and
Treatment 2: intravitreal injection of LPS at day 0. ˜5 μl subconjunctival injection of dexamethasone hydrogel (10 mg/ml dose, Sigma) at 24 hrs after the LPS induction.
The dexamethasone was loaded by equilibrating 0.1 ml of hydrogel in 2 ml of dexamethasone drug solution. SLO images and blood flow measurement were obtained before the LPS induction, 1, 2, 3, and 6 days after the LPS (and dexametheasone treatment). Furthermore, in one animal, the thermo-hydrogel (control) was applied directly to the cornea (simulate eyedrops).

[3] = cited from earlier work

Compound | encapsulation efficiency ([1]; dexamethasone 1:2 (w/w) of PLGA) [%] | encapsulation efficiency ([1]; dexamethasone 1:10 (w/w) of PLGA) [%] | degree of dilation of retinal vessels [2] [%] | solubility in water [3] [mg/mL] | P (oil/water) (Methylene chloride + methanol / 0.2% PVA) | P (oil/water) (Methylene chloride + methanol / 2% PVA) | P (oil/water) (Methylene chloride + methanol / 2% PVA + 0.25N (NH4)2SO4) | P (oil/water) (Methylene chloride + methanol / 2% PVA + 0.5N NaCl)
C[C@@H]1C[C@H]2[C@@H]3CCC4=CC(=O)C=C[C@]4(C)[C@@]3(F)[C@@H](O)C[C@]2(C)[C@@]1(O)C(=O)CO [dexamethasone] | 7.5 | 2.5 | ~15 |  |  |  |  | 
C[C@@H]1C[C@H]2[C@@H]3CCC4=CC(=O)C=C[C@]4(C)[C@@]3(F)[C@@H](O)C[C@]2(C)[C@@]1(O)C(=O)COP(=O)(O)O [DSP, Dexamethasone 21-phosphate disodium salt] |  |  |  | > 50 | 0.06 | 0.15 | 0.86 | 0.26
